Source: PubChem BioAssay (NCI)
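96-well plates; 48 h exposure; 5 concentrations. Endpoints by linear interpolation between flanking doses. Not reached: highest tested concentration assigned. The concentration for 50% growth inhibition is given as GI50. TGI denotes the concentration required for complete inhibition of growth.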

Legend:
Assay in all cases: DTP human tumour cell line panel, 48 h
786-0 renal = system: 786-0 renal
A498 renal = system: A498 renal
A549 NSCLC = system: A549 NSCLC
ACHN renal = system: ACHN renal
BT-549 breast = system: BT-549 breast
CAKI-1 renal = system: CAKI-1 renal
CCRF-CEM leukemia = system: CCRF-CEM leukemia
COLO 205 colon = system: COLO 205 colon
DU-145 prostate = system: DU-145 prostate
EKVX NSCLC = system: EKVX NSCLC
HCC-2998 colon = system: HCC-2998 colon
HCT-116 colon = system: HCT-116 colon
HCT-15 colon = system: HCT-15 colon
HL-60(TB) leukemia = system: HL-60(TB) leukemia
HOP-62 NSCLC = system: HOP-62 NSCLC
HOP-92 NSCLC = system: HOP-92 NSCLC
HS 578T breast = system: HS 578T breast
HT29 colon = system: HT29 colon
IGROV1 ovarian = system: IGROV1 ovarian
K-562 leukemia = system: K-562 leukemia
KM12 colon = system: KM12 colon
LOX IMVI melanoma = system: LOX IMVI melanoma
M14 melanoma = system: M14 melanoma
MALME-3M melanoma = system: MALME-3M melanoma
MCF7 breast = system: MCF7 breast
MDA-MB-231 breast = system: MDA-MB-231 breast
MDA-MB-435 = system: MDA-MB-435
MDA-N = system: MDA-N
MOLT-4 leukemia = system: MOLT-4 leukemia
NCI-H23 lung = system: NCI-H23 lung
NCI-H460 lung = system: NCI-H460 lung
NCI-H522 lung = system: NCI-H522 lung
NCI/ADR-RES ovarian = system: NCI/ADR-RES ovarian
OVCAR-3 ovarian = system: OVCAR-3 ovarian
OVCAR-4 ovarian = system: OVCAR-4 ovarian
OVCAR-5 ovarian = system: OVCAR-5 ovarian
OVCAR-8 ovarian = system: OVCAR-8 ovarian
PC-3 prostate = system: PC-3 prostate
RPMI-8226 leukemia = system: RPMI-8226 leukemia
RXF 393 renal = system: RXF 393 renal
SF-268 CNS = system: SF-268 CNS
SF-295 CNS = system: SF-295 CNS
SF-539 CNS = system: SF-539 CNS
SK-MEL-2 melanoma = system: SK-MEL-2 melanoma
SK-MEL-28 melanoma = system: SK-MEL-28 melanoma
SK-MEL-5 melanoma = system: SK-MEL-5 melanoma
SK-OV-3 ovarian = system: SK-OV-3 ovarian
SN12C renal = system: SN12C renal
SNB-19 CNS = system: SNB-19 CNS
SNB-75 CNS = system: SNB-75 CNS
SR leukemia = system: SR leukemia
SW-620 colon = system: SW-620 colon
T-47D breast = system: T-47D breast
TK-10 renal = system: TK-10 renal
U251 CNS = system: U251 CNS
UACC-257 melanoma = system: UACC-257 melanoma
UACC-62 melanoma = system: UACC-62 melanoma
UO-31 renal = system: UO-31 renal

CCOC(=O)c1ccc(N(CCOS(C)(=O)=O)CCOS(C)(=O)=O)cc1C
GI50 (786-0 renal): 16.7 µM | TGI (786-0 renal): 42.2 µM | GI50 (A498 renal): 24.1 µM | TGI (A498 renal): 73.3 µM | GI50 (A549 NSCLC): 44.5 µM | TGI (A549 NSCLC): > 100 µM | GI50 (ACHN renal): 9.94 µM | TGI (ACHN renal): 42.7 µM | GI50 (BT-549 breast): 34.1 µM | TGI (BT-549 breast): > 100 µM | GI50 (CAKI-1 renal): 6.32 µM | TGI (CAKI-1 renal): 27.1 µM | GI50 (CCRF-CEM leukemia): 10 µM | TGI (CCRF-CEM leukemia): > 100 µM | GI50 (COLO 205 colon): 38.4 µM | TGI (COLO 205 colon): > 100 µM | GI50 (DU-145 prostate): 18.4 µM | TGI (DU-145 prostate): 38.9 µM | GI50 (EKVX NSCLC): 29.5 µM | TGI (EKVX NSCLC): > 100 µM | GI50 (HCC-2998 colon): 28.1 µM | TGI (HCC-2998 colon): 66.6 µM | GI50 (HCT-116 colon): 33.4 µM | TGI (HCT-116 colon): > 100 µM | GI50 (HCT-15 colon): 28.2 µM | TGI (HCT-15 colon): > 100 µM | GI50 (HL-60(TB) leukemia): 8.08 µM | TGI (HL-60(TB) leukemia): 51.2 µM | GI50 (HOP-62 NSCLC): 17.6 µM | TGI (HOP-62 NSCLC): 55 µM | GI50 (HOP-92 NSCLC): 36.7 µM | TGI (HOP-92 NSCLC): > 100 µM | GI50 (HS 578T breast): 64.1 µM | TGI (HS 578T breast): > 100 µM | GI50 (HT29 colon): 26.3 µM | TGI (HT29 colon): > 100 µM | GI50 (IGROV1 ovarian): 91.4 µM | TGI (IGROV1 ovarian): > 100 µM | GI50 (K-562 leukemia): 49.7 µM | TGI (K-562 leukemia): > 100 µM | GI50 (KM12 colon): 90.4 µM | TGI (KM12 colon): > 100 µM | GI50 (LOX IMVI melanoma): 29.1 µM | TGI (LOX IMVI melanoma): > 100 µM | GI50 (M14 melanoma): 40.5 µM | TGI (M14 melanoma): > 100 µM | GI50 (MALME-3M melanoma): 29 µM | TGI (MALME-3M melanoma): > 100 µM | GI50 (MCF7 breast): 17.5 µM | TGI (MCF7 breast): > 100 µM | GI50 (MDA-MB-231 breast): 77.9 µM | TGI (MDA-MB-231 breast): > 100 µM | GI50 (MDA-MB-435): 48.5 µM | TGI (MDA-MB-435): > 100 µM | GI50 (MDA-N): 57.8 µM | TGI (MDA-N): > 100 µM | GI50 (MOLT-4 leukemia): 7.01 µM | TGI (MOLT-4 leukemia): > 100 µM | GI50 (NCI-H23 lung): 15.1 µM | TGI (NCI-H23 lung): 55.5 µM | GI50 (NCI-H460 lung): 27.8 µM | TGI (NCI-H460 lung): > 100 µM | GI50 (NCI-H522 lung): 18.8 µM | TGI (NCI-H522 lung): 61.8 µM | GI50 (NCI/ADR-RES ovarian): 23.7 µM | TGI (NCI/ADR-RES ovarian): 66.9 µM | GI50 (OVCAR-3 ovarian): 18.8 µM | TGI (OVCAR-3 ovarian): 44 µM | GI50 (OVCAR-4 ovarian): 20.9 µM | TGI (OVCAR-4 ovarian): 46.8 µM | GI50 (OVCAR-5 ovarian): 38.1 µM | TGI (OVCAR-5 ovarian): 94 µM | GI50 (OVCAR-8 ovarian): 44 µM | TGI (OVCAR-8 ovarian): > 100 µM | GI50 (PC-3 prostate): 30.4 µM | TGI (PC-3 prostate): > 100 µM | GI50 (RPMI-8226 leukemia): 22.2 µM | TGI (RPMI-8226 leukemia): > 100 µM | GI50 (RXF 393 renal): 17.8 µM | TGI (RXF 393 renal): 33.3 µM | GI50 (SF-268 CNS): 22 µM | TGI (SF-268 CNS): 82.7 µM | GI50 (SF-295 CNS): 21.9 µM | TGI (SF-295 CNS): > 100 µM | GI50 (SF-539 CNS): 23.9 µM | TGI (SF-539 CNS): > 100 µM | GI50 (SK-MEL-2 melanoma): 28.6 µM | TGI (SK-MEL-2 melanoma): 67.5 µM | GI50 (SK-MEL-28 melanoma): > 100 µM | TGI (SK-MEL-28 melanoma): > 100 µM | GI50 (SK-MEL-5 melanoma): 35.9 µM | TGI (SK-MEL-5 melanoma): > 100 µM | GI50 (SK-OV-3 ovarian): 33.6 µM | TGI (SK-OV-3 ovarian): > 100 µM | GI50 (SN12C renal): 24.7 µM | TGI (SN12C renal): > 100 µM | GI50 (SNB-19 CNS): 62.6 µM | TGI (SNB-19 CNS): > 100 µM | GI50 (SNB-75 CNS): 34.5 µM | TGI (SNB-75 CNS): 87.1 µM | GI50 (SR leukemia): 2.83 µM | TGI (SR leukemia): > 100 µM | GI50 (SW-620 colon): 88.2 µM | TGI (SW-620 colon): > 100 µM | GI50 (T-47D breast): 16.6 µM | TGI (T-47D breast): 62.1 µM | GI50 (TK-10 renal): 50.7 µM | TGI (TK-10 renal): > 100 µM | GI50 (U251 CNS): 26.4 µM | TGI (U251 CNS): > 100 µM | GI50 (UACC-257 melanoma): 69.6 µM | TGI (UACC-257 melanoma): > 100 µM | GI50 (UACC-62 melanoma): 23.8 µM | TGI (UACC-62 melanoma): 95.4 µM | GI50 (UO-31 renal): 23.1 µM | TGI (UO-31 renal): 45.9 µM
